Publication PMC6556898 (Biomaterials, 2018)

What was measured:
[1] = test system: human monocyte-derived macrophages (MDM); assay: MTT cell vitality assay; assay type: cell-based; details: 12 hours
[2] = test system: HIV-1ADA; assay: Antiretroviral activity: reverse transcriptase; assay type: cell-based

Cc1cc(/C=C/C#N)cc(C)c1Nc1ccnc(Nc2ccc(C#N)cc2)n1 [native RPV, rilpivirine]
cell vitality (MTT) ([1]; 200 μM (RPV), highest concentration tested): 37.9%
effect on cell vitality (MTT) ([1]; up to 50 μM (RPV)): little effect on cell vitality
RT activity (progeny HIV virion production) ([2]; 6.25 μM for 8 hours, challenge at day 5, MOI 0.1, 10 days post infection): virtually no protection
RT activity (progeny HIV virion production) ([2]; 12.5 mM RPV equivalents (printed) for 8 hours, challenge at day 5): no protection
